Laboratory results taken from ChEMBL document CHEMBL6096696, “Structure-Activity Relationship Studies of an Autophagy Inhibitor That Targets the ATG14L-Beclin1 Protein-Protein Interaction Reveal Modifications That Improve Potency and Solubility and Maintain Selectivity” (J Med Chem, 2025).
Converted amounts (≈) assume the structure as drawn.

Key:
[1] = test system: HEK293T; test: Inhibition of C-terminal Nano-luc tagged ATG14L/C-terminal Halo-tagged Beclin 1 (unknown origin) PPI tranfected with HEK293T cells using […] at 100 uM incubated for 24 hrs by […] assay relative to control; type: cell-based; conditions: Homo sapiens, values are per cent of control
[2] = Kinetic aqueous solubility of compound in PBS at pH 7.4 by absorbance based analysis; type: physicochemical; conditions: read-out: Kinetic_solubility
[3] = test system: HEK293T; test: Inhibition of C-terminal Nano-luc tagged UVRAG/C-terminal Halo-tagged Beclin 1 (unknown origin) PPI tranfected with HEK293T cells using […] at 100 uM incubated for 24 hrs by […] assay relative to control; type: cell-based; conditions: Homo sapiens, values are per cent of control
[4] = Selectivity ratio of inhibition of C-terminal Nano-luc tagged UVRAG/C-terminal Halo-tagged Beclin 1 (unknown origin) PPI tranfected with HEK293T cells to inhibition of C-terminal Nano-luc tagged ATG14L/C-terminal Halo-tagged Beclin 1 (unknown origin) PPI tranfected with HEK293T cells

SMILES | solubility kinetic [2] [µM] | Selectivity ratio [4] | residual binding, % of control [1] [%] | residual binding, % of control [3] [%]
O=C1COc2ccc(Nc3ccccc3Cl)cc2N1Cc1noc(C2CCC2)n1 | > 100 | 1.11 | 93.6 | 104
Cc1cccc(Nc2ccc3c(c2)N(Cc2noc(C4CCC4)n2)C(=O)CO3)c1C | > 100 | 1.5 | 79.3 | 119
CCCN1C(=O)COc2ccc(NC(=O)c3ccccc3Br)cc21 | > 100 |  | 119 | 
CCCN1C(=O)COc2ccc(S(=O)(=O)Nc3c(C)cccc3C)cc21 | > 100 |  | 105 | 
CCCN1C(=O)COc2ccc(NS(=O)(=O)c3cccc(Br)c3)cc21 | > 100 |  | 101 | 
CCCN1C(=O)COc2ccc(S(=O)(=O)Nc3cccc(Cl)c3C)cc21 | > 100 |  | 131 | 
CCCN1C(=O)COc2ccc(Nc3cccc(Br)c3)cc21 | 50 (≈ 18.1 µg/mL) | 1.14 | 101 | 116
O=C1COc2ccc(-c3ccc(F)cc3F)cc2N1Cc1noc(C2CCC2)n1 | > 100 | 1.14 | 87.9 | 100
COc1ccccc1-c1ccc2c(c1)N(Cc1noc(C3CCC3)n1)C(=O)CO2 | > 100 | 1.06 | 98.3 | 104
CCCN1C(=O)COc2ccc(NS(=O)(=O)c3c(C(C)C)cc(C(C)C)cc3C(C)C)cc21 | > 100 |  | 59.9 | 
CCCCN1C(=O)COc2ccc(S(=O)(=O)Nc3cccc(C)c3C)cc21 | > 100 |  | 110 | 
CCCN1C(=O)COc2ccc(S(=O)(=O)Nc3ccccc3)cc21 | > 100 |  | 134 | 
CCCN1C(=O)COc2ccc(NS(=O)(=O)c3ccc(F)cc3C)cc21 | > 100 |  | 99.8 | 
CCCN1C(=O)COc2ccc(Nc3ccccc3)cc21 | > 100 | 1.54 | 75.8 | 116
CC(C)c1cccc(-c2ccc3c(c2)N(Cc2noc(C4CCC4)n2)C(=O)CO3)c1 | > 100 | 1.21 | 81.6 | 99.1
O=C1COc2ccc(-c3cccc(F)c3)cc2N1Cc1noc(C2CCC2)n1 | 50 (≈ 19 µg/mL) | 1.11 | 90.3 | 101

SMILES | solubility kinetic [2] [µM] | Selectivity ratio [4] | residual binding, % of control [1] [%] | residual binding, % of control [3] [%]
CCCN1C(=O)COc2ccc(S(=O)(=O)N3CCCCC3)cc21 | > 100 |  | 109 | 
O=C1COc2ccc(Nc3ccccc3F)cc2N1Cc1noc(C2CCC2)n1 | > 100 | 1.23 | 82 | 101
CCCN1C(=O)COc2ccc(NC(=O)c3ccc(Cl)cc3Cl)cc21 | 50 (≈ 19 µg/mL) |  | 109 | 
CC(C)c1ccccc1Nc1ccc2c(c1)N(Cc1noc(C3CCC3)n1)C(=O)CO2 | > 100 | 1.27 | 82.4 | 105
CCCN1C(=O)COc2ccc(NC(=O)c3ccccc3)cc21 | > 100 |  | 106 | 
CCCN1C(=O)COc2ccc(Nc3ccccc3Br)cc21 | > 100 | 1.49 | 82.9 | 108
Cc1cccc(Nc2ccc3c(c2)N(Cc2noc(C4CCC4)n2)C(=O)CO3)c1Cl | 100 (≈ 42.5 µg/mL) | 1.13 | 89.8 | 102
CC(C)c1cccc(Nc2ccc3c(c2)N(Cc2noc(C4CCC4)n2)C(=O)CO3)c1 | > 100 | 1.18 | 88.7 | 105
CCCN1C(=O)COc2ccc(S(=O)(=O)Nc3cc(OC)ccc3OC)cc21 | > 100 |  | 107 | 
Cc1cccc(NS(=O)(=O)c2ccc3c(c2)OCC(=O)N3Cc2ccco2)c1C | > 100 |  | 109 | 
Cc1cccc(-c2ccc3c(c2)N(Cc2noc(C4CCC4)n2)C(=O)CO3)c1 | > 100 | 1.13 | 90.8 | 102
CCCN1C(=O)COc2ccc(NS(=O)(=O)c3ccccc3)cc21 | > 100 |  | 89.2 | 
Cc1cccc(NS(=O)(=O)c2ccc3c(c2)N(CC(C)O)C(=O)CO3)c1C (stereo not given) | > 100 |  | 107 | 
CCCN1C(=O)COc2ccc(NS(=O)(=O)c3cccc(C)c3)cc21 | > 100 |  | 96.2 | 
Cc1cccc(NS(=O)(=O)c2ccc3c(c2)OCC(=O)N3CCc2ccccc2)c1C | > 100 |  | 103 | 

Second part, led by results:

solubility kinetic [2] [µM] | Selectivity ratio [4] | SMILES | residual binding, % of control [1] [%] | residual binding, % of control [3] [%]
> 100 |  | CCCN1C(=O)COc2ccc(NS(=O)(=O)c3cccc(C)c3C)cc21 | 83.2 | 
> 100 |  | CCCN1C(=O)COc2ccc(NS(=O)(=O)c3cccc(C(F)(F)F)c3)cc21 | 80 | 
> 100 |  | CCCN1C(=O)COc2ccc(S(=O)(=O)NCc3ccccc3)cc21 | 116 | 
> 100 | 1.05 | O=C1COc2ccc(-c3cccc(OC(F)(F)F)c3)cc2N1Cc1noc(C2CCC2)n1 | 105 | 110
> 100 |  | CCCN1C(=O)COc2ccc(S(=O)(=O)Nc3cccc(Cl)c3)cc21 | 145 | 
> 100 | 1.04 | CCCN1C(=O)COc2ccc(Nc3cccc(C)c3C)cc21 | 104 | 108
100 (≈ 42.5 µg/mL) | 1.4 | Cc1c(Cl)cccc1Nc1ccc2c(c1)N(Cc1noc(C3CCC3)n1)C(=O)CO2 | 83.9 | 118
> 100 |  | CCCN1C(=O)COc2ccc(NS(=O)(=O)c3cccc(OC)c3)cc21 | 99.8 | 
> 100 |  | CCCN1C(=O)COc2ccc(NC(=O)c3cccc(Br)c3)cc21 | 112 | 
> 100 | 1.06 | O=C1COc2ccc(-c3ccccc3)cc2N1Cc1noc(C2CCC2)n1 | 98.7 | 105
> 100 |  | Cc1cccc(NS(=O)(=O)c2ccc3c(c2)N(C)C(=O)CO3)c1C | 106 | 
> 100 |  | CCCN1C(=O)COc2ccc(NC(=O)Cc3ccccc3)cc21 | 127 | 
> 100 | 1.24 | O=C1COc2ccc(-c3ccccc3F)cc2N1Cc1noc(C2CCC2)n1 | 79 | 98
> 100 | 1.15 | O=C1COc2ccc(-c3ccccc3O)cc2N1Cc1noc(C2CCC2)n1 | 94.9 | 109
> 100 |  | CCCN1C(=O)COc2ccc(NS(=O)(=O)c3cc(OC)ccc3OC)cc21 | 103 | 
> 100 |  | CCCN1C(=O)COc2ccc(NS(=O)(=O)c3ccc(Cl)cc3Cl)cc21 | 101 | 
> 100 |  | CCCN1C(=O)COc2ccc(S(=O)(=O)Nc3ccccc3F)cc21 | 147 | 
> 100 |  | CCCN1C(=O)COc2ccc(S(=O)(=O)Nc3cccc(N4CCOCC4)c3)cc21 | 108 | 
25 (≈ 11.1 µg/mL) | 1.25 | O=C1COc2ccc(Nc3cccc(Cl)c3Cl)cc2N1Cc1noc(C2CCC2)n1 | 86.2 | 108
> 100 |  | CCCN1C(=O)COc2ccc(S(=O)(=O)N3CCOCC3)cc21 | 110 | 
> 100 |  | Cc1cccc(NS(=O)(=O)c2ccc3c(c2)N(CC2CCCCC2)C(=O)CO3)c1C | 106 | 
> 100 | 1.11 | O=C1COc2ccc(-c3cccc(F)c3F)cc2N1Cc1noc(C2CCC2)n1 | 85.1 | 94.8
> 100 |  | CCCN1C(=O)COc2ccc(NC(=O)c3cccc([N+](=O)[O-])c3)cc21 | 104 | 
> 100 |  | CCCN1C(=O)COc2ccc(NS(=O)(=O)c3ccccc3Br)cc21 | 88.1 | 
50 (≈ 16.5 µg/mL) | 1.02 | CCCN1C(=O)COc2ccc(Nc3cccc(Cl)c3C)cc21 | 101 | 104
> 100 |  | CCCN1C(=O)COc2ccc(S(=O)(=O)Nc3ccccc3Br)cc21 | 132 | 
> 100 | 1.01 | Cc1ccccc1-c1ccc2c(c1)N(Cc1noc(C3CCC3)n1)C(=O)CO2 | 109 | 110
50 (≈ 21.1 µg/mL) |  | Cc1cccc(NS(=O)(=O)c2ccc3c(c2)OCC(=O)N3Cc2ccccc2)c1C | 105 | 
> 100 |  | Cc1cccc(NS(=O)(=O)c2ccc3c(c2)OCC(=O)N3Cc2ccccn2)c1C | 112 | 
> 100 |  | CCCN1C(=O)COc2ccc(NC(=O)c3cccc(C)c3C)cc21 | 92 | 
